Laboratory results from patent publication US20240425555A1, “MUTANT BRD4 POLYPEPTIDES AND METHODS OF USE THEREOF” (Northwestern University, priority 2023, published 2024).

Legend:
CCNT1 = CCNT1 ChIP-seq with increasing concentrations of JQ1; assay type: cell-based, human; conditions: BRD4-IAA7 cells; series concentration of JQ1, 3 h
Procedure: (§1) FIGS. 5A-5J collectively illustrate the identification of a distinct BRD4-PTEFb population, which is active but not histone acetylation-bound. FIG. 5A illustrates the track examples for AID ChIP-seq in the BRD4-AID line and CCNT1 ChIP-seq in the BRD4-IAA7 line with/without auxin treatment (3 h). H3K27ac ChIP-seq signal in the BRD4-AID line is shown for comparison. FIG. 5B illustrates the heatmap showing the genome-wide BRD4 and CCNT1 occupancy profile and the corresponding fold change upon auxin treatment for the conditions in A. Genes ranked by BRD4 signal in control. FIG. 5C illustrates the scatter plot showing the relative promoter density of CCNT1 vs BRD4, calculated by the log 2RPKM of the ChIP-seq signals at the regions flanking (±1 Kb) the Pol II pausing sites. FIG. 5D illustrates the track examples for GFP ChIP-seq signal upon induction of GFP-tagged BRD4-FL or the indicated mutants (left). Heatmap showing the genome-wide fold changes of the GFP-tagged BRD4 mutants relative to the vector (right). The endogenous BRD4 was depleted by auxin treatment (3 h) in all samples. Genes are ranked by GFP signal in the GFP-BRD4-FL condition. FIG. 5E illustrates the track examples for CCNT1 ChIP-seq signal upon endogenous BRD4 depletion and rescue with indicated GFP-tagged mutants (left). Heatmap showing the genome-wide CCNT1 fold changes (right). […]

Pol II pausing [1] = conditions: reference 21; cited from earlier work
Pol II pausing [2] = test: total Pol II ChIP-seq upon auxin, JQ1, dBET6 or NVP-2 treatment; assay type: cell-based, human; conditions: BRD4-IAA7 cells
Source text: FIG. 1A illustrates the updated BRD4-IAA7 degron line. The F-box protein AtAFB2 was integrated into the C terminus of the BRD4 locus under the control of an independent promoter. […] These treatment concentrations/durations are relevant to all of FIG. 1. […] The gene list (N=6481) in this analysis is used throughout the study (except for FIGS. 3H-J). FIG. 1D illustrates the estimated Cumulative Density Function (ECDF) of pause release ratios (PRR, reported as log 2 fold change) for auxin treatment vs untreated control. The PRR is the ratio of Pol II occupancy within gene bodies to its occupancy at promoters. A leftward shift of the curve indicates an increase in the frequency and/or duration of promoter-proximal pausing, while a rightward shift indicates reduced pausing and/or more efficient release into gene bodies.
FIGS. 8A-8E. collectively illustrate the differences in Pol II pausing induced by BRD4 depletion and bromodomain inhibition, related to FIG. 1. FIG. 8A illustrates the western blot showing the expression of HA-tagged AtAFB2 and the auxin-induced degradation of V5-tagged BRD4 using anti-tag antibodies. FIG. 8B illustrates the western blot comparing the BRD4 protein expression level and degradation kinetics of the previously published BRD4-AID degron to those of the BRD4-IAA7 degron used in this study 12. Note: in FIGS. 8A and 8B, the BRD4-IAA7 clone used is D4 (Hygromycin selected); it is G3 (Neomycin selected) otherwise in the study. […] FIG. 8E illustrates the track examples of Pol II ChIP-seq signal at the HSPA8 and GAPDH loci upon NVP-2 treatment (2 h) and corresponding heatmaps showing Pol II occupancy profiles and fold change in occupancy vs control upon NVP-2 treatment.
To specifically deplete BRD4 without affecting other BET proteins, we generated an updated BRD4 degron line by modifying the published miniIAA7 degron system (hereafter BRD4-IAA7) to reduce basal degradation seen with AID degron-tagged BRD4^30 (FIGS. 1A and 8A).
DLD1 cells were crosslinked with 15 ml 1% PFA (ThermoFisher, #28908) in PBS on 15 cm plates for 10 minutes at RT and quenched by the addition of 2 ml 2.5M glycine followed by shaking for 5 minutes. Crosslinked cells were collected by scraping. Chromatin sonication was performed for 10 minutes using a Covaris E200 set to 10% duty factor, 200 cycles per burst, and 140 peak intensity power. For endogenous protein ChIP, 10-20% of mouse embryonic fibroblasts (MEF) chromatin (prepared the same way as in DLD1 cells) was added to each sample as a spike-in control. For overexpressed protein ChIP, such as GFP-ChIP, 20 ng spike-in chromatin (Active Motif, #53083) and 2 ug spike-in antibody (Active Motif, #61686) were added to each sample. Immunoprecipitation was carried out at 4° C. overnight using 5ul of Rpb1 (Cell Signaling Technology, #D8L4Y), 5ul of Ser2p (Active Motif, #61984), 10ul of CCNT1 (Cell Signaling Technology, #81464), 10ul of CDK9 (Santa Cruz Biotechnology, #sc-13130 X) antibodies, or 200ul of a cocktail consisting of 50ul of each GFP antibody (DSHB, #GFP-G1, #GFP-12A6, #GFP-12E6, #GFP-8H11). Immune complexes were enriched with Protein G-coupled Dynabeads (Invitrogen, #10004D) at 4° C. for >=4 h, and incubated with proteinase K (Roche, #3115828001) to reverse crosslink at 65° C. overnight. Eluted DNA was purified with the QIAquick PCR Purification Kit (Qiagen, #28106), and libraries were prepared using the KAPA HTP library preparation kit (Roche, #07961901001) for sequencing on the NovaSeq 6000.
Reads were aligned to hg38 with bowtie 1/250. Genes (N=6,481) with pausing site and TES annotation were obtained from a previously published study51. Promoter regions were designated as spanning from 100 bp upstream to 300 bp downstream of the pausing site. Gene body regions were designated as spanning from 300 bp downstream of the pausing site to the TES. FeatureCounts 2.0.152 was used to calculate the total mapped reads from Pol II ChIP-seq at promoters and within gene bodies. […]

Ser2P = Ser2P ChIP-seq upon JQ1 or dBET6 treatment; assay type: cell-based, human; conditions: BRD4-IAA7 cells; series concentration of JQ1 or 250 nM dBET6, 3 h
Procedure: as §1

SMILES: Cc1sc2c(c1C)C(c1ccc(Cl)cc1)=N[C@@H](CC(=O)OC(C)(C)C)c1nnc(C)n1-2 [JQ1]
- CCNT1 ChIP-seq signals (CCNT1): decreased dramatically with increasing concentrations
- effect on Pol II pausing (RNA-seq, NET-seq) (Pol II pausing [1]): only a modest effect on Pol II pausing
- effect on pausing at super enhancer-controlled genes such as Myc (Pol II pausing [2]; MYC locus): notable
- Pol II pausing (Pol II occupancy profile) (Pol II pausing [2]; auxin 500 uM, JQ1 1 uM, dBET6 250 nM, 3 h): induced little to no pausing
- gene-by-gene log 2PRR correlation with auxin treatment (Pol II pausing [2]; scatter plot): poorly correlated
- Ser2P ChIP-seq signals (Ser2P): minimal
